Reference: ChEMBL document CHEMBL1201862, “PubChem BioAssay data set” (2004)
Active and inactive are the calls of the source.

Key:
[1] = test system: CHO; assay: CHO cell viability loss, potency – luminescence, cytotoxicity control for TLR9-MyD88 binding inhibitor project, dose response (AID 588339); type: functional, cell-based, hamster; settings: Cricetulus griseus;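 note: CHO cells stably coexpressing TLR9 and MyD88 fusions from primary screen; compound exposure lasted 48 hours before viability readout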
[2] = test system: BJ; assay: BJ-TERT fibroblast viability loss – cell-based, RAS-independent, luminescence, dose response (AID 1933); type: functional; settings: Homo sapiens
[3] = test system: BJ; assay: BJ-TERT-LT-ST fibroblast viability loss – cell-based, RAS-independent, luminescence, dose response (AID 1935); type: functional; settings: Homo sapiens;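 note: BJ fibroblasts immortalized with TERT plus LT and ST oncogenes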
[4] = biological target: Beta Lactamase (Pseudomonas aeruginosa, UniProt Q932Y6); assay: BLA reporter interference, concentration series – BLA reporter cells, FRET fluorescence, artefact control for TLR9-MyD88 binding inhibitor project, dose response (AID 588341); type: cell-based;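 note: cell based assay in CHO-K1 cells stably expressing beta-lactamase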
Chain of Beta Lactamase (Q932Y6 whole entry): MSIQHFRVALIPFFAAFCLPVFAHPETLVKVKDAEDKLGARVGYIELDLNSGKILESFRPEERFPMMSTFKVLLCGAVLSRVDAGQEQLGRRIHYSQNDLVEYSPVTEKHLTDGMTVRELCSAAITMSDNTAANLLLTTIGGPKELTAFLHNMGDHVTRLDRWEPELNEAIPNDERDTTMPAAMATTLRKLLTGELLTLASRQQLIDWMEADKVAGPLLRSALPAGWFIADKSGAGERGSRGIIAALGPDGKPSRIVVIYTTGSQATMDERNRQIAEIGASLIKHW

[5] = DRD fibroblast viability loss – cell-based, non-viral oncogenic, luminescence, dose response (AID 1934); type: functional; settings: Homo sapiens
[6] = biological target: Integrin alpha-4 (Homo sapiens, UniProt P13612); assay: allosteric modulators of alpha4 integrin VLA-4 – cell-based, LIBS antibody binding, flow cytometry, SAR follow-up (AID 488791); type: functional
Chain of Integrin alpha-4 (P13612 whole entry): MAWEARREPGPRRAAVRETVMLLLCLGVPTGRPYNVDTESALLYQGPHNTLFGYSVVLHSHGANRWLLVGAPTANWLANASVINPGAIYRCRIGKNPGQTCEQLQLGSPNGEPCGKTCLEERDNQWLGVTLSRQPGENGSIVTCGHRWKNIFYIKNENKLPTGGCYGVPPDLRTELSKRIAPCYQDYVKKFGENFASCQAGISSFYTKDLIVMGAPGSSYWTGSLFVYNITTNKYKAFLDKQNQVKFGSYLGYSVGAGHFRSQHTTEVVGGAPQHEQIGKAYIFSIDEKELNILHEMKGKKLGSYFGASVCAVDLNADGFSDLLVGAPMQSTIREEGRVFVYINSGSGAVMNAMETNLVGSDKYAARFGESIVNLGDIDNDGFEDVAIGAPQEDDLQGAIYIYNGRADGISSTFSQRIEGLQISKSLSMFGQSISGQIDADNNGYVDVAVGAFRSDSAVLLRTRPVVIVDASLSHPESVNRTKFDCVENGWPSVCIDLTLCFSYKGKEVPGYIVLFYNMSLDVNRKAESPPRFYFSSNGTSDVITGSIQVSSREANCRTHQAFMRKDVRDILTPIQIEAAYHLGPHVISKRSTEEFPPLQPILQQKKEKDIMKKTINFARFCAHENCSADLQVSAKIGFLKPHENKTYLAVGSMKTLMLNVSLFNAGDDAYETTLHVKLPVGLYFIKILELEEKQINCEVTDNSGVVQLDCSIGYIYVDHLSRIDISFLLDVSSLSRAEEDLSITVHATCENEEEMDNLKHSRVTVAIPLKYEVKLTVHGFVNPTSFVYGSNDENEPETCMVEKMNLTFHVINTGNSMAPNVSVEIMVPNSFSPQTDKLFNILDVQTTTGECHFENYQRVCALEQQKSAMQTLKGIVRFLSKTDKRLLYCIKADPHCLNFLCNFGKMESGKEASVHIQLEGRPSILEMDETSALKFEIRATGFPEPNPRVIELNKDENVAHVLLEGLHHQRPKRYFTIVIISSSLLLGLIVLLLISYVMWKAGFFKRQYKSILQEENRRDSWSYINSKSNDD

[7] = biological target: Sphingosine 1-phosphate receptor 1 (Homo sapiens, UniProt P21453); type: functional;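 note: Tango beta-arrestin reporter U2OS cells stimulated with S1P near its EC80; inhibitor potency meaning antagonism of receptor activation by the natural agonist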
Chain of Sphingosine 1-phosphate receptor 1 (P21453 whole entry): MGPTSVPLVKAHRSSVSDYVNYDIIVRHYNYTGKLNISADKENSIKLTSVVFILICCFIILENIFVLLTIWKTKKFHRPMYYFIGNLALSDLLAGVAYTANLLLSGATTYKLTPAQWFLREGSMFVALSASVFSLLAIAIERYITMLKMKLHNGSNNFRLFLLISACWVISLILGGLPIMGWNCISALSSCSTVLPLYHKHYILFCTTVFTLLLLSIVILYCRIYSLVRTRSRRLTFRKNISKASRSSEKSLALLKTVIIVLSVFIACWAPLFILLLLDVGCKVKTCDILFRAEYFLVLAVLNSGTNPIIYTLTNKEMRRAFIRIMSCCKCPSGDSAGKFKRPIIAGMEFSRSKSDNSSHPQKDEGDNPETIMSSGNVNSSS

[8] = biological target: T1, Heat shock factor protein 1 (Mus musculus, UniProt P38532); assay: decrease of HSF1-responsive luciferase luminescence – cell-based, NIH3T3, dose retest, confirmation (AID 2382); type: functional;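 note: NIH3T3 fibroblasts with HSF1-driven luciferase reporter stressed by proteasome inhibitor MG132; luminescence from HSF1-driven luciferase expression after 8 hours of MG132 stress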
T1 sequence (P38532 whole entry): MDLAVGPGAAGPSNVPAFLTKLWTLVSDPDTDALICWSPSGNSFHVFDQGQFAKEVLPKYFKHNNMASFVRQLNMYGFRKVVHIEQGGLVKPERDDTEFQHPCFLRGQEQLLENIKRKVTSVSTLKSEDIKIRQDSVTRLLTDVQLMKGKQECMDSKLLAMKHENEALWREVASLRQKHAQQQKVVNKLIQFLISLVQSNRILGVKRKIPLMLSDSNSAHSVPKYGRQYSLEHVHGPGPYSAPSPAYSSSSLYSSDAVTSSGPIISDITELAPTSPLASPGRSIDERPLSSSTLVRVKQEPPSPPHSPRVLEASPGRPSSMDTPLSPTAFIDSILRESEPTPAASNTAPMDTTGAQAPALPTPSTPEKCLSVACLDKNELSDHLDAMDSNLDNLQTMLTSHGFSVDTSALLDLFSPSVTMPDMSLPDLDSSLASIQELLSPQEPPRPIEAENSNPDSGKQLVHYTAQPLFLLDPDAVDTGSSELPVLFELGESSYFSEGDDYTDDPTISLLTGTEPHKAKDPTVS

[9] = biological target: T2, Sphingosine 1-phosphate receptor 4 (Homo sapiens, UniProt O95977); assay: Fluorescence dose response cell-based high throughput screening assay for antagonists of the Sphingosine 1-Phosphate Receptor 4 (S1P4). [Related pubchem assays: 1524 (Confirmation in triplicates.), 1510 (Primary screen.)]; type: functional
T2 sequence (O95977 whole entry): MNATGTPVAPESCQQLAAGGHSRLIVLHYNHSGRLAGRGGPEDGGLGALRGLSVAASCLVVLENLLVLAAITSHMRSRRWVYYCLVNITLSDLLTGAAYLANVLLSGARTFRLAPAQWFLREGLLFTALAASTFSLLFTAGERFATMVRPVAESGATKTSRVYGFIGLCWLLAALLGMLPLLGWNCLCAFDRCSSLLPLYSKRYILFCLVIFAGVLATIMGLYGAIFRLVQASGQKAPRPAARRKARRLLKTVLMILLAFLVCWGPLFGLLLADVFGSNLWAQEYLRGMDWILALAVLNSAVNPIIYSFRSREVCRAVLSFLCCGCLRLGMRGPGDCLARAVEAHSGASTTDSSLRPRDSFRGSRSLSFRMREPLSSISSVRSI

[10] = test system: BJ; assay: cells; type: functional, cell-based; settings: Homo sapiens
[11] = NIH3T3 cell viability loss – ATP luminescence, mouse fibroblasts, counter-screen, dose response (AID 2010); type: functional, cell-based;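 note: cells exposed to compound for about 90 hours before reading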
[12] = biological target: T3, Calpain-2 catalytic subunit (Sus scrofa, UniProt P43367); assay: m-calpain protease blockers, concentration series – biochemical, fluorogenic peptide substrate, dose response (AID 1420); type: functional
T3 sequence (P43367 whole entry): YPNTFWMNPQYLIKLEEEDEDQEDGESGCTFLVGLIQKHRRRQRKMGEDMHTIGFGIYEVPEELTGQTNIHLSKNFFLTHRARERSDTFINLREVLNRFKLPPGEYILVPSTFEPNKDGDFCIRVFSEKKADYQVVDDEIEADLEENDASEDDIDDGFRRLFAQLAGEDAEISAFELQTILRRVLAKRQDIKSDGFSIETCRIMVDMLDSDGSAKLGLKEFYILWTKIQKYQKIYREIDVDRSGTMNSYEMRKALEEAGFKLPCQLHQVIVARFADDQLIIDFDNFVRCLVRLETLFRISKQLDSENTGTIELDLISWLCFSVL

[13] = HEK-293T viability loss after treatment – luminescence, T-cell screen hits, cytotoxicity control for TCR NF-kB inhibitor project, dose response (AID 489026); type: functional, cell-based;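 note: cells exposed to compound about 14 hours before the viability readout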
[14] = cells
[15] = Trypanosoma cruzi growth suppression in host cells – NIH3T3 host cells, beta-gal luminescence, confirmation (AID 2044); type: functional, cell-based;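 note: intracellular parasites grown in NIH/3T3 mouse fibroblasts as host cells; luminescent beta-galactosidase reporter signal from transgenic T. cruzi replicating inside host cells; inhibitors lower the luminescence signal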
[16] = biological target: NACHT, LRR and PYD domains-containing protein 3 (Homo sapiens, UniProt Q96P20); assay: NALP3 inhibitors in yeast, dose response, luminescent (AID 488799); type: functional
Chain of NACHT, LRR and PYD domains-containing protein 3 (Q96P20 whole entry, the tested form may be a part): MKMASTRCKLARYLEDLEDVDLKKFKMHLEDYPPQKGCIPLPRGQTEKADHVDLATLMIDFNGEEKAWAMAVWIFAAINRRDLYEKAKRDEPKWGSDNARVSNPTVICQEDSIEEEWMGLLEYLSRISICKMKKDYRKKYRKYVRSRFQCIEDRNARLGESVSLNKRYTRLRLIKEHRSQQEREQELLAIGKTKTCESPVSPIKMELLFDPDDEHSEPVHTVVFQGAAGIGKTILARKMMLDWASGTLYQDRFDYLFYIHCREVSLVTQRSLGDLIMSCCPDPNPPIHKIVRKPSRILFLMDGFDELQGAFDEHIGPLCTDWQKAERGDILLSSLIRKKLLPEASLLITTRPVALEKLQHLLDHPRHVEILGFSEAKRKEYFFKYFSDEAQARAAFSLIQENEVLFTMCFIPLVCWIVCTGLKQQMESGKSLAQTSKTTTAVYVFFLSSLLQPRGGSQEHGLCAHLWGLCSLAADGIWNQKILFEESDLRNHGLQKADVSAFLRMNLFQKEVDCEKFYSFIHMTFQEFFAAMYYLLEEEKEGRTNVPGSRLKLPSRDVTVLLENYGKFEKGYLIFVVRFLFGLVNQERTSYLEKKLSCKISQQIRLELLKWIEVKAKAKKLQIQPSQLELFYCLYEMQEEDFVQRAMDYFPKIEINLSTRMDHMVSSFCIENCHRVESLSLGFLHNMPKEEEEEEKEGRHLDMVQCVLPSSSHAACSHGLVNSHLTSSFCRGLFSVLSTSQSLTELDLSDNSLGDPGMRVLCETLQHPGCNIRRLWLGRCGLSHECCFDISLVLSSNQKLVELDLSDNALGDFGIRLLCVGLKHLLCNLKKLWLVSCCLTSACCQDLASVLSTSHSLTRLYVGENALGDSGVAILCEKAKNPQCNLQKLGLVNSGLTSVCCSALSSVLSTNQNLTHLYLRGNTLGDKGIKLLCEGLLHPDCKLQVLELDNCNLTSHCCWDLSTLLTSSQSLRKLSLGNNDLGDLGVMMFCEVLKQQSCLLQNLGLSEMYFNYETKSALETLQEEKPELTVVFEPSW

[17] = biological target: Neurotensin receptor type 1 (Homo sapiens, UniProt P30989); type: functional;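 note: Image-based confirmatory dose-response assay measuring agonist activity at NTR1; NTR1-expressing U2OS osteosarcoma cells imaged for beta-arrestin GFP spot formation; agonist potency where compounds increase beta-arrestin recruitment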
Chain of Neurotensin receptor type 1 (P30989 whole entry): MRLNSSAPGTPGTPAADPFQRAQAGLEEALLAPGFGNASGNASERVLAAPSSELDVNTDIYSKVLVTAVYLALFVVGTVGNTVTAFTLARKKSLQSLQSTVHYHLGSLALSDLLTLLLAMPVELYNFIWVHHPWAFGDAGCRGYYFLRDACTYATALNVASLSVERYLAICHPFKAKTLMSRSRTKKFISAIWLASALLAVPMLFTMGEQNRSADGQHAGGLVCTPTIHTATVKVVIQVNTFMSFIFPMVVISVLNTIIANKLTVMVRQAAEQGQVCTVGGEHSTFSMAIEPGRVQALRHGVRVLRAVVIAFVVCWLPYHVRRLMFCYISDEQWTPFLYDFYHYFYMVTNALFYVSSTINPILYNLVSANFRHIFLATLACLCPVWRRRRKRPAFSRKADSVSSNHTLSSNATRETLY

[18] = test system: Vero; assay: antiviral protection of cells from WNV – synthesized analogs, SAR follow-up (AID 2238); type: functional, cell-based; settings: Chlorocebus sabaeus
[19] = test system: Vero; assay: Vero cell viability after compound exposure – synthesized analogs, set II, cytotoxicity control for West Nile virus antiviral project, SAR follow-up (AID 2402); type: functional; settings: Chlorocebus sabaeus
[20] = test system: Vero; assay: Vero 76 cell viability after compound exposure – Vero 76 cells, synthesized analogs, cytotoxicity control for West Nile virus antiviral project, SAR follow-up (AID 2414); type: functional; settings: Chlorocebus sabaeus
[21] = test system: Vero; assay: host cell viability loss, Vero E6 – synthesized analogs, cytotoxicity control for West Nile virus antiviral project, SAR follow-up (AID 2244); type: functional; settings: Chlorocebus sabaeus
[22] = biological target: Dual specificity protein phosphatase 3 (Homo sapiens, UniProt P51452); assay: Dose Response Confirmation of compounds that inhibit VHR1 in Fluorescent Assay. [Related pubchem assays (depositor defined):AID1661, AID1878]; type: functional
Chain of Dual specificity protein phosphatase 3 (P51452 whole entry): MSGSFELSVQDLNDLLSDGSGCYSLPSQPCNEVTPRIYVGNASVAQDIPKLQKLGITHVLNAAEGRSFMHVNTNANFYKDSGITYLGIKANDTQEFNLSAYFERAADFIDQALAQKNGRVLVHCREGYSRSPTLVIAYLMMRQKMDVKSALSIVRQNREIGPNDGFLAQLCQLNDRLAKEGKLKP

[23] = biological target: Low molecular weight phosphotyrosine protein phosphatase (Homo sapiens, UniProt P24666); type: functional; settings: read-out: IC50_Mean;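 note: Dose-response confirmation assay measuring inhibition of LMPTP enzyme activity by fluorescence intensity read-out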
Chain of Low molecular weight phosphotyrosine protein phosphatase (P24666 whole entry): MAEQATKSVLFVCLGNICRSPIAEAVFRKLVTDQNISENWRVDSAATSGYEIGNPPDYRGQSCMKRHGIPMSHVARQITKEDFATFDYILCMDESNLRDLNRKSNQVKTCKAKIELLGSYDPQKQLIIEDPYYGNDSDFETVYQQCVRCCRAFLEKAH

[24] = biological target: T4, Tyrosine-protein phosphatase non-receptor type 7 (Homo sapiens, UniProt P35236); assay: Dose Response confirmation of compounds that inhibit HePTP. [Related pubchem assays (depositor defined):AID1059, AID1661, AID2085]; type: functional
T4 sequence (P35236 whole entry): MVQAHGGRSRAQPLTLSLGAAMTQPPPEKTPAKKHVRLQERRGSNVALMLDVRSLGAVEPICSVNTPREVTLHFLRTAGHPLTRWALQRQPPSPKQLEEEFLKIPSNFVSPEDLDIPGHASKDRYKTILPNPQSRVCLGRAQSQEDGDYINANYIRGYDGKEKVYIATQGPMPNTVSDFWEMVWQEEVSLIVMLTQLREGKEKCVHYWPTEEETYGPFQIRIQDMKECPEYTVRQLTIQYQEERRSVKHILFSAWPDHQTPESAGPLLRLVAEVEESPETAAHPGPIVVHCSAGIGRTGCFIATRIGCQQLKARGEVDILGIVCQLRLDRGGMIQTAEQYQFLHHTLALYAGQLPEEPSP

[25] = biological target: T5, Coagulation factor XII (Homo sapiens, UniProt P00748); assay: activated coagulation factor XII inhibitor potency, concentration-effect curve, cell-free (AID 716); type: functional
T5 sequence (P00748 whole entry): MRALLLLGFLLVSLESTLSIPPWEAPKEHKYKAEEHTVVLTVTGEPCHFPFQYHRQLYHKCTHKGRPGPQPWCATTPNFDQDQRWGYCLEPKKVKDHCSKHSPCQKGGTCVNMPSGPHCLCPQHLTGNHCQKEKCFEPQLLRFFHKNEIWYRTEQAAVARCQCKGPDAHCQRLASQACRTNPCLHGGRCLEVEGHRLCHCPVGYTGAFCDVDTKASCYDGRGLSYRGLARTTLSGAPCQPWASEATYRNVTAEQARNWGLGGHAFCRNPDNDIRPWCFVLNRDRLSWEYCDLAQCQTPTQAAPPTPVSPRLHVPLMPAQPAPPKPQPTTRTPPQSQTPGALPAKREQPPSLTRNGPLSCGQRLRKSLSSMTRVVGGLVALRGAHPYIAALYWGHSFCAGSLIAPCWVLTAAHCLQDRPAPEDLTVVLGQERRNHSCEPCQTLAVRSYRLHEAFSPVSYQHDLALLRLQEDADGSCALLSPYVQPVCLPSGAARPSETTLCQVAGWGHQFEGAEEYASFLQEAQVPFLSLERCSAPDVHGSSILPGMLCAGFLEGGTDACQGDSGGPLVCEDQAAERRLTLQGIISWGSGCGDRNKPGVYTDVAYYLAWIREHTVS

[26] = biological target: Voltage-dependent T-type calcium channel subunit alpha-1H (Homo sapiens, UniProt O95180); assay: human CACNA1H calcium influx blockade – cell-based, synthetic library set 1, calcium flux (AID 493022); type: functional
[27] = biological target: Delta-type opioid receptor (Homo sapiens, UniProt P41143); assay: SAR Analysis of Antagonists of the DOR Receptor using an Image-Based Assay - Set 3. [Related pubchem assays (depositor defined):AID1777, AID1785]; type: functional;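 note: U2OS cells expressing DOR1 and beta-arrestin GFP stimulated with 100 nM SNC80; imaging of GFP-tagged beta-arrestin moving into spots after receptor activation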
Chain of Delta-type opioid receptor (P41143 whole entry): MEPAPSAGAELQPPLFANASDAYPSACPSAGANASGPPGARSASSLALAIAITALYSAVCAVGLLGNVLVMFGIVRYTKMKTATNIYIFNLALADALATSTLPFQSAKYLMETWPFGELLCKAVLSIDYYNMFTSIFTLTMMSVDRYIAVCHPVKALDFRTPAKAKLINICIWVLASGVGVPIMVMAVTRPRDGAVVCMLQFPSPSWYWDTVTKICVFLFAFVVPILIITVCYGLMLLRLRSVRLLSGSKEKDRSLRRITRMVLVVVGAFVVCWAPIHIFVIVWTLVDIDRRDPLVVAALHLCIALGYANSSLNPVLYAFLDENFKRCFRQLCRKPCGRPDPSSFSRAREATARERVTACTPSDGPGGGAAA

[28] = biological target: Mu-type opioid receptor (Homo sapiens, UniProt P35372); assay: SAR Analysis of Antagonists of the MOR Receptor using an Image-Based Assay - Set 3. [Related pubchem assays (depositor defined):AID1777, AID1785, AID1786, AID1966, AID2133, AID2136, AID2284, AID2285, AID2420]; type: functional
Chain of Mu-type opioid receptor (P35372 whole entry): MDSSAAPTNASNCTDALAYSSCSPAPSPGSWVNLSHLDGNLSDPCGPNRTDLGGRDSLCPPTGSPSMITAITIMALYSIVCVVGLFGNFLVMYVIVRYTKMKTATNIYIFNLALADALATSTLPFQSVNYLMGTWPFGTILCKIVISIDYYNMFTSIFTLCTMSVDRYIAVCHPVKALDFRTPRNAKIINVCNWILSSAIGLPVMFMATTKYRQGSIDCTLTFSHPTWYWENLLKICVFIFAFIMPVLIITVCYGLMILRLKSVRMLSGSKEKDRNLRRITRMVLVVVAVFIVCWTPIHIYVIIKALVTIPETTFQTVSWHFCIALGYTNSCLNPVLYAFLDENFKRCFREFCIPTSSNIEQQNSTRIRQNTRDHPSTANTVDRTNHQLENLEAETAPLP

[29] = biological target: T6, Kappa-type opioid receptor (Homo sapiens, UniProt P41145); assay: SAR analysis of small molecule antagonists of the kappa opioid receptor via a luminescent beta-arrestin assay - Set 3. [Related pubchem assays (depositor defined):AID1777, AID1778, AID1785, AID1786, AID1966, AID2133, AID2136, AID2285, AID2495]; type: functional
T6 sequence (P41145 whole entry): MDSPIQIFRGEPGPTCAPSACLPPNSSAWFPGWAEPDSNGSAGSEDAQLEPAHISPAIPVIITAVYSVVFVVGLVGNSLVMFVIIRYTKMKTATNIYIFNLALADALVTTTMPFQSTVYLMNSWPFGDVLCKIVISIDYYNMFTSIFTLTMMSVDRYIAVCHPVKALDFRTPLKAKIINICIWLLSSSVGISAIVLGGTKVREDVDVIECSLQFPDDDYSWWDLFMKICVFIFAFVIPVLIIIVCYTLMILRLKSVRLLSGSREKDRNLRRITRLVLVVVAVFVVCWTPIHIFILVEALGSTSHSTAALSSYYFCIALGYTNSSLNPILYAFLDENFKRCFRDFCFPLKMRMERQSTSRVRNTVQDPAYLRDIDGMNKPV

[30] = biological target: T6, Kappa-type opioid receptor; assay: SAR analysis of Antagonists of the Kappa Opioid Receptor (KOR) using an Image-Based Assay - Set 4. [Related pubchem assays (depositor defined):AID1777, AID1785]; type: functional
[31] = biological target: T6, Kappa-type opioid receptor; assay: SAR analysis of small molecule antagonists of the kappa opioid receptor via a luminescent beta-arrestin assay - Set 6. [Related pubchem assays (depositor defined):AID1777, AID1778, AID1785, AID1786, AID1966, AID2133, AID2136, AID2285]; type: functional
[32] = biological target: T6, Kappa-type opioid receptor; assay: SAR analysis of small molecule antagonists of the kappa opioid receptor via a luminescent beta-arrestin assay - Set 4. [Related pubchem assays (depositor defined):AID1777, AID1778, AID1785, AID1786, AID1966, AID2133, AID2136, AID2285]; type: functional
[33] = protection from phage-mediated lysis, alamar blue read-out – E. coli UTI89, K1F phage, bacterial capsule biogenesis inhibitors (AID 488966); type: functional

In the case of `CCOC(=O)COc1ccccc1/C=C\[N+](=O)[O-]`, the IC50 [1] was 1.92 µM (active), the EC50 [2] was 3.48 µM (inconclusive) and the EC50 [3] was 3.99 µM (inconclusive). For the same compound, the IC50 [4] was > 49.7 µM (inactive), the EC50 [5] was 4.76 µM (active) and the EC50 [6] was 0.335 µM (active). The IC50 [7] was 3.42 µM (active), the EC50 [8] was 4.03 µM (active) and the IC50 [9] was 0.962 µM (active). The EC50 [10] was 26.7 µM (active).
For `CCCCCCCCn1c2c(c(=N)c3ccccc31)CCC2`, the EC50 [11] was 8.28 µM (active), the IC50 [12] was 7.78 µM (not active) and the IC50 [13] was 59.4 µM (inactive). For the same compound, the EC50 [14] was 0.014 µM (active), the EC50 [15] was < 0.1 µM (active) and the IC50 [16] was 11.9 µM (active). For the same compound, the EC50 [17] was 17.7 µM (active).
For `O=C(CSc1nc2ccccc2c(=O)n1-c1ccc(F)c(Cl)c1)Nc1ccc2c(c1)CCC2`, the IC50 [18] was 19.3 µM (active), the CC50 [19] was > 100 µM (active) and the CC50 [20] was > 66.6 µM (active). For the same compound, the CC50 [21] was > 40 µM (active).
For `O=C(CSc1ccc2ccccc2n1)Nc1nsc(-c2ccc(Cl)cc2)n1`, the IC50 [22] was 6.74 µM (active), the IC50 [23] was 11.7 µM (active) and the IC50 [24] was 0.931 µM (active).
For `O=C(c1cccc(F)c1)n1nnc2ccccc21`, the IC50 [25] was 10.5 µM (active).
For `O=C(COc1ccc(F)cc1Cl)Nc1nnc(-c2ccc(F)cc2)o1`, the EC50 [26] was 1.9 µM (active).
For `O=C(Cn1c(=O)c2cccn2c2cc(Br)cnc21)NCCCN1CCN(c2ccc(Cl)cc2)CC1`, the IC50 [27] was > 32 µM (inactive), the IC50 [28] was 5.32 µM (active) and the IC50 [29] was > 20 µM (inactive). For the same compound, the IC50 [30] was > 32 µM (inactive).
For `Cc1ccc(S(=O)(=O)NCc2ccc(C(=O)NCCCN3CCN(c4ccccc4)CC3)cc2)cc1`, the IC50 [27] was > 32 µM (inactive), the IC50 [28] was 0.469 µM (active) and the IC50 [31] was > 20 µM (inactive). The IC50 [30] was > 32 µM (inactive) and the IC50 [32] was > 20 µM (inactive).
For `OC(CNc1ccnc2cc(Cl)ccc12)CNC1CCCCC1` (stereo unspecified), the IC50 [33] was > 150 µM (active).
